From ChEMBL document CHEMBL1201862, “PubChem BioAssay data set” (2004) come the findings set out here.

Experiment [1] addresses Eukaryotic translation initiation factor 4H (Homo sapiens, UniProt Q15056). Nature of the experiment: eIF4H binding inhibition – biochemical, uHTS, fluorescence polarization, translation initiation inhibitor project, primary screen (AID 2012). A general note: Fluorescence polarisation rises when a labelled molecule tumbles more slowly, as on binding a larger partner.
Experiment [2] has as its target Polyadenylate-binding protein 1 (Homo sapiens, UniProt P11940). Nature of the experiment: blockers of PABP interaction with poly(A) – biochemical, fluorescence polarization, […] (AID 2014).
The target in the next experiment is Cytochrome P450 2D6 (Homo sapiens, UniProt P10635). The experiment can be described thus: qHTS Assay for Inhibitors and Substrates of Cytochrome P450 2D6. [Related pubchem assays: 410 ]. In kind it is ADME. The settings on record: read-out: Potency. In general terms: qHTS replaces the single test concentration by a dilution series.
Chain of Cytochrome P450 2D6 (P10635 whole entry): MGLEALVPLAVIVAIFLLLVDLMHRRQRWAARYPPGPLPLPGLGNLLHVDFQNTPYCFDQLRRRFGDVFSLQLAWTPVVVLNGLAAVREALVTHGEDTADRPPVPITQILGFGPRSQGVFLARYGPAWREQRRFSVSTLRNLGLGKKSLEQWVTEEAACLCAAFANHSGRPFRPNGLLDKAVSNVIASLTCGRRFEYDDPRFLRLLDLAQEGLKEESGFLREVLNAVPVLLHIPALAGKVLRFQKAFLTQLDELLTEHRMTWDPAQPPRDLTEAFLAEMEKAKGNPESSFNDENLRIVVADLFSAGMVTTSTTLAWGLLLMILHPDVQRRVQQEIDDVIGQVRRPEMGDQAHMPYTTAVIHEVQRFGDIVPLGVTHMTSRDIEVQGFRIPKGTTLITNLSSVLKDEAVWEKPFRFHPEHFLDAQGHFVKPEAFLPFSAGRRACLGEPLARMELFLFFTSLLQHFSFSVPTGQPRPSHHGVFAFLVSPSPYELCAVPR
Experiment [3] deals with T1, Eukaryotic translation initiation factor 2-alpha kinase 3 (Homo sapiens, UniProt Q9NZJ5). Nature of the experiment: Dose response cell-based high-throughput screening assay to measure PERK inhibition. [Related pubchem assays: 1416 ]. Type of experiment: functional.
T1 sequence (Q9NZJ5 whole entry): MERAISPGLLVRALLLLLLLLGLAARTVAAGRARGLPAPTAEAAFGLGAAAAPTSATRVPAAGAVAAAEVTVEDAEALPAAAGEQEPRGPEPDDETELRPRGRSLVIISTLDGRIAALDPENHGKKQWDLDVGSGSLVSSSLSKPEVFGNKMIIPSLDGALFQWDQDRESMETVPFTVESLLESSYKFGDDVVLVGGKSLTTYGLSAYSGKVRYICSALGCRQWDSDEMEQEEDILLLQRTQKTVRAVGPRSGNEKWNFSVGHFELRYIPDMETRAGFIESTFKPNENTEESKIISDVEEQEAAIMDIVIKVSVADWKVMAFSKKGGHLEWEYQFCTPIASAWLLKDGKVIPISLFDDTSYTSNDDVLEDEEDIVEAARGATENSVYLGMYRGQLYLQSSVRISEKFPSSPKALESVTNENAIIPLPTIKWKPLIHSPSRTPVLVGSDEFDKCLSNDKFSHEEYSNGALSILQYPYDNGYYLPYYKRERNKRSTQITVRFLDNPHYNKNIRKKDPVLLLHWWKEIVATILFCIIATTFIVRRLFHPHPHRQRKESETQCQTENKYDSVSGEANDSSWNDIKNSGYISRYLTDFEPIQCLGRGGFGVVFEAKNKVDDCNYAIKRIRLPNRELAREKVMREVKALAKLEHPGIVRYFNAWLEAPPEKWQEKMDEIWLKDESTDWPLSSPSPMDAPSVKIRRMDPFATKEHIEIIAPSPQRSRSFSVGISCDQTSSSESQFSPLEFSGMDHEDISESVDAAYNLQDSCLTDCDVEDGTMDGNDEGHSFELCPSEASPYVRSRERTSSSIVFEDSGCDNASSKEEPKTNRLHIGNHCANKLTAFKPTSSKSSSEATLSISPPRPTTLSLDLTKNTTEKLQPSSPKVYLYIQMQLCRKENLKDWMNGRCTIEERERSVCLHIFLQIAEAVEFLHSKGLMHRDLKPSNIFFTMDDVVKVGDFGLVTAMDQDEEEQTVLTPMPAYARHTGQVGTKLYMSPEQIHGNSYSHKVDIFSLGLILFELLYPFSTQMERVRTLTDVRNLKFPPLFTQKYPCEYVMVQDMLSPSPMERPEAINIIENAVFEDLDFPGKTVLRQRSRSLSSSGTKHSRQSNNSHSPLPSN
The target in experiment [4] is T1, Eukaryotic translation initiation factor 2-alpha kinase 3. The experiment can be described thus: Counterscreen assay for PERK inhibitors: Dose response cell-based high throughput screening assay to measure inhibition of PERK at 6 hours. [Related pubchem assays: 1522, 1416 ]. Type of experiment: functional. A general note: The purpose of a counterscreen is to sort out artefacts and off-target activity.

The target of experiment [5] is Melanin-concentrating hormone receptor 1 (Homo sapiens, UniProt Q99705). The experiment can be described thus: Fluorescence-based counterscreen for antagonists of the G-protein coupled receptor 7 (GPR7): cell-based high throughput dose response assay to identify antagonists of the melanin-concentrating hormone receptor 1 (MCHR1). In kind it is functional.
Chain of Melanin-concentrating hormone receptor 1 (Q99705 whole entry): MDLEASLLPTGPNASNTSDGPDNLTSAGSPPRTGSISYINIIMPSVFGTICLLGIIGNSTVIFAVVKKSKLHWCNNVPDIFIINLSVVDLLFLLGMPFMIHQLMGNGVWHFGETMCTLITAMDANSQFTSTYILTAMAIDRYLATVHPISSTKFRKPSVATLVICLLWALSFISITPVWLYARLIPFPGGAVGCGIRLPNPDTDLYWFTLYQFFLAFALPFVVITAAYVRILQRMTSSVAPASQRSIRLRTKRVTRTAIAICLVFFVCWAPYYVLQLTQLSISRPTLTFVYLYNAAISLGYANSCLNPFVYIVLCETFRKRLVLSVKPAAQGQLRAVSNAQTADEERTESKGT
Experiment [6] deals with T2, Corticotropin-releasing factor receptor 2/Corticotropin-releasing factor-binding protein (Homo sapiens, UniProt P24387+Q13324).
T2 sequence (Q13324 whole entry): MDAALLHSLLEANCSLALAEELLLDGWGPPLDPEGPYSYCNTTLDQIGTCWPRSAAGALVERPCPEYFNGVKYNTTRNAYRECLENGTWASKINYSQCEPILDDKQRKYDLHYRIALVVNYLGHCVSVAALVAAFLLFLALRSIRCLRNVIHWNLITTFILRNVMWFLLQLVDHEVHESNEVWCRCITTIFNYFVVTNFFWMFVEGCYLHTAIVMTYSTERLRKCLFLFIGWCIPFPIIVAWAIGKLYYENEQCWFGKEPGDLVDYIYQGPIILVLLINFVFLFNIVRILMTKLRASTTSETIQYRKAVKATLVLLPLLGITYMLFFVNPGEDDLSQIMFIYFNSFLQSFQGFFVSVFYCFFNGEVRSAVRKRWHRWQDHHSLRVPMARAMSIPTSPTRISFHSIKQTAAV
T2 sequence (P24387 whole entry): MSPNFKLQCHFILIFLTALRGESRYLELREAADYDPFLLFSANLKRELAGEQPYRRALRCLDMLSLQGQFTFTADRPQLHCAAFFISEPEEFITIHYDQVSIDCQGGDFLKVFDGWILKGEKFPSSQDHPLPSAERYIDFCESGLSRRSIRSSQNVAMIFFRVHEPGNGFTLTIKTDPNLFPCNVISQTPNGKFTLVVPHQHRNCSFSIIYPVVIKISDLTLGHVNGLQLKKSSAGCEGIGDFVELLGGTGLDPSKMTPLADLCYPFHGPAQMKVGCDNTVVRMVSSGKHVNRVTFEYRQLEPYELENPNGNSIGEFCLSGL
The experiment can be described thus: activators of CRF receptor 2 with binding protein – uHTS hits, confirmation (AID 602473). Type of experiment: functional. Conditions: read-out: EC50_Mean.

The target of experiment [7] is T3, Neuropeptides B/W receptor type 1 (Homo sapiens, UniProt P48145).
T3 sequence (P48145 whole entry): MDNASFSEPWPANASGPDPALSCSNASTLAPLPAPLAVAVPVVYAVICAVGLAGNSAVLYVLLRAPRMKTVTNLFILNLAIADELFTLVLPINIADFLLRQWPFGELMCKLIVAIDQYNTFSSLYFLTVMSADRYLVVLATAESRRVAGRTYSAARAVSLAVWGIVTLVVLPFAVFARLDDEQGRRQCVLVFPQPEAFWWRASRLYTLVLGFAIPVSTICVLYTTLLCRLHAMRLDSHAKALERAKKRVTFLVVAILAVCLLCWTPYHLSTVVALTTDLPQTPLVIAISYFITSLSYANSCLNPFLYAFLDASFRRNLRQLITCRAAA
Nature of the experiment: Fluorescence-based dose response cell-based high throughput screening assay to identify antagonists of the G-protein coupled receptor 7 (GPR7). [Related pubchem assays: 1952 (Screening assay (GPR7 antagonists).), 1880 (Summary AID.)]. In kind it is functional.

Experiment [8] has as its target Dual specificity protein phosphatase 3 (Homo sapiens, UniProt P51452). The experiment can be described thus: inhibition constants for human DUSP3 – biochemical, colorimetric, SAR follow-up (AID 2004).

Structures are written as SMILES. The source made the active and inactive calls.

Chain of Dual specificity protein phosphatase 3 (P51452 whole entry): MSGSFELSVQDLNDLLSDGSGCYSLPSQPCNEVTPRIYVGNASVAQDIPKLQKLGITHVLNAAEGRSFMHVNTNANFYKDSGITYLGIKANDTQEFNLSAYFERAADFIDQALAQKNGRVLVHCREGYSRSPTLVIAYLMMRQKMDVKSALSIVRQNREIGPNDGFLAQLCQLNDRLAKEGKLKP
Chain of Polyadenylate-binding protein 1 (P11940 whole entry): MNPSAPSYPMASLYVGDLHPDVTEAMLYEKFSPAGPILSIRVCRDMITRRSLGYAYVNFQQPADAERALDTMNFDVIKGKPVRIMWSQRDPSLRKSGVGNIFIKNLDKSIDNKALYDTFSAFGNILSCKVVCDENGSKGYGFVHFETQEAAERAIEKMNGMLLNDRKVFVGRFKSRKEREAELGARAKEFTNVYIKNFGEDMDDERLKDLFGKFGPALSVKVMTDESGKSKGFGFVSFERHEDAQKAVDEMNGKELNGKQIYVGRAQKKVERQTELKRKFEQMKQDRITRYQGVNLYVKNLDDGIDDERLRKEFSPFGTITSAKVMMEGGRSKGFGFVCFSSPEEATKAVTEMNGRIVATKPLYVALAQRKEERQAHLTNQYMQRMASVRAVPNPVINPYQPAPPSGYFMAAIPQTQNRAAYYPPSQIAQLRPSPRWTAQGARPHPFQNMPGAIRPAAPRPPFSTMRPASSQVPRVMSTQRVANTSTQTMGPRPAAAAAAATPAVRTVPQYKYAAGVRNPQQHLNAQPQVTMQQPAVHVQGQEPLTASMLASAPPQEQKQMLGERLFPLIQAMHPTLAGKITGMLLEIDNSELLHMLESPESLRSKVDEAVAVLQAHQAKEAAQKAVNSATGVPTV

Take `C[N+]1(C)[C@@H]2CC[C@H]1CC(OC(=O)[C@@H](CO)c1ccccc1)C2` (some centres undefined): the IC50 in experiment [1] is > 100 µM (inactive); in experiment [2] it was 4.91 µM (active).

As for `O=c1cc(-c2ccccc2O)oc2cc(O)cc(O)c12`, on Cytochrome P450 2D6, the AC50 was 25.1 µM (inconclusive).

On to `CCCn1cnc2c(S)nc(N)nc21`, for which the EC50 in experiment [3] and in experiment [4] was > 55.7 µM (not active) in each case.

For `Cc1cccc(NC(=S)NC(=O)Cc2ccccc2)c1C`, the IC50 was 13.3 µM (not active) in experiment [5] and 6.65 µM (active) in experiment [7]. The EC50 in experiment [6] was 9.75 µM (active).

Regarding `CCC(CO)N/C=C1\C(=O)N(c2c(Cl)cccc2Cl)c2ccccc21` (centres undefined), in [8], the Ki was 24.2 µM (inactive).

The term IC50 denotes the concentration at which inhibition is half-maximal. In general, Ki refers to a measure of affinity in units of concentration, obtained from inhibition or displacement.
